This is an account of results in article PMC9458058, “Synthesis of N-Substituted Iminosugar C-Glycosides and Evaluation as Promising α-Glucosidase Inhibitors” (Molecules, 2022).

One test addresses α-glucosidase from yeast (Saccharomyces cerevisiae, UniProt P53341). The test can be described thus: biochemical. Conditions: for inhibition potency compared with compound 5λ, in words: Table 2. The format is biochemical. The method, then: The inhibitory potency of the synthesized N-substituted iminosugar C-glycosides 5 was assessed by testing the compounds in assays for the α-glucosidase from yeast. […] Alternatively, N atom was modified with various benzaldehydes, giving a library of iminosugar C-glycosides containing phenyl.
The extracts of each sample were dissolved in distilled water to prepare a certain concentration. 150 µL of the sample solution was mixed with 150 µL of maltose solution (prepared with 0.2 M, pH = 6.8 phosphate buffer) at a certain concentration, and cultured at 37 °C for 10 min. Then 150 µL of the enzyme solution at a certain concentration was added and mixed. The reaction was carried out at 37 °C for 60 min. The reaction was terminated in a boiling water bath for 10 min and centrifuged at 3000 r/min for 10 min. The supernatant was taken to determine the content of glucose with Glu kit. […] Enzyme activity inhibition rate (%) = (negative-sample)/(negative-blank) × 100%.

In a further test the target is α-glucosidase (Saccharomyces cerevisiae, UniProt P53341). The test can be described thus: Enzyme kinetics experiment (ultrafiltration recovery, Lineweaver-Burk plots). The class given is biochemical. The source says: To determine which mechanism 6e belonged to, we removed the unreacted inhibitor from the enzyme solution by ultrafiltration, and examined whether the activity would be recovered or not by the method described in the literatures. When an enzyme solution containing 6e was subjected to ultrafiltration and then redissolved with the same concentration, the α-glucosidase activity was substantially recovered (Figure 5A).
Sequence of α-glucosidase (P53341 whole entry): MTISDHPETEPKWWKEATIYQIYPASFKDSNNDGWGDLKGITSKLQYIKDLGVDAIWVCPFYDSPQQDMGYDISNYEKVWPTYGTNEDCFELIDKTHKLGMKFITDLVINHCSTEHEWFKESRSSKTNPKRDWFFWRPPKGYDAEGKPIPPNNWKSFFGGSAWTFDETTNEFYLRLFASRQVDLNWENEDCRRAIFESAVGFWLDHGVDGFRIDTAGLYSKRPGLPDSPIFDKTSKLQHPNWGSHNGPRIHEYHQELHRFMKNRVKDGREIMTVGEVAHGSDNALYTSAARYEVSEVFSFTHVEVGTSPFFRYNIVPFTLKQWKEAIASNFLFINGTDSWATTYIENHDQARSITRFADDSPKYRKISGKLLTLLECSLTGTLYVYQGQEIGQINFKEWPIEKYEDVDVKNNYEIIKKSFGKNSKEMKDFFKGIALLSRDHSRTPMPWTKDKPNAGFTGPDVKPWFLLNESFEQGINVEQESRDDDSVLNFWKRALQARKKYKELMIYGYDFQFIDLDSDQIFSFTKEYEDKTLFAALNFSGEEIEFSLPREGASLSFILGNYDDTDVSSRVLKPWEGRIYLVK
Further analysis of the compound 6e, in order to reveal the type of enzyme inhibition on α-glucosidase, was done with different substrate concentration.
Enzyme kinetics experiment: The principle of the experimental method is the same as that of the above method, in which the micro-membrane centrifuge tube with a pore diameter of 3K is used for small molecule centrifugal separation. In the enzyme kinetics experiment, the concentration of enzyme was set at a fixed concentration, and five concentration gradients were designed for the solution of substrate maltose. The linear relationship was plotted using the obtained results combined with the Michaelis-Menten equation.

[1] abbreviates: read-out: IC50 against α-glucosidase from yeast.

Where two headings read alike, the source gives them in different places.

Sequence of α-glucosidase from yeast (P53341 whole entry): as above

In general, IC50 refers to the concentration that inhibits the measured activity by half. As to `CC(=O)C[C@@H]1[C@H](O)[C@H](O)[C@H](O)CN1Cc1ccc(O)cc1Cl` [Compound 6d, (1R, 2S, 3R, 4R)-1-Acetylmethyl-2,3,4-trihydroxyl-N-2-chloro-4-hydroxylbenzylpiperidine], at α-glucosidase from yeast, the “inhibition compared with positive control Acarbose, in words” value is recorded as “equivalent to positive control Acarbose”. Also, the IC50 on α-glucosidase from yeast (setting [1]) turned out to be 2.4 µM.

A word on the Ki: it is a dissociation constant, usually derived from enzyme kinetics or from competition with a known ligand. Regarding `CC(=O)C[C@@H]1[C@H](O)[C@H](O)[C@H](O)CN1Cc1c(Cl)cc(O)cc1Cl` [Compound 6e, (1R, 2S, 3R, 4R)-1-Acetylmethyl-2,3,4-trihydroxyl-N-2,6-dichloro-4-hydroxylbenzylpiperidine], on α-glucosidase from yeast, the “inhibition compared with positive control Acarbose, in words” value is “stronger inhibitory potency than positive control Acarbose” and the “inhibitory potency relative to positive control Acarbose” value turned out to be 2 fold. For the same compound, the concentration for half-maximal inhibition (IC50) on α-glucosidase from yeast (setting [1]) is 0.9 µM. Further, the “type of enzyme inhibition” value at α-glucosidase (Lineweaver-Burk plots) is listed as “uncompetitive inhibitor”. Moreover, the Ki on α-glucosidase (Lineweaver-Burk plots, different substrate concentration) was found to be 8.6 µM. Further, the reversibility of inhibition entry on α-glucosidase (enzyme activity after removal of inhibitor by ultrafiltration) is recorded as “reversible inhibitor”.

With `COc1cc(CN2C[C@@H](O)[C@@H](O)[C@@H](O)[C@H]2CC(C)=O)ccc1O` [Compound 6f, (1R, 2S, 3R, 4R)-1-Acetylmethyl-2,3,4-trihydroxyl-N-4-hydroxyl-methoxylbenzylpiperidine], on α-glucosidase from yeast, the IC50 is over 20 µM and the “inhibition potency compared with compound 5λ, in words” value was “severely diminishes the inhibition”.

Turning to `CCOc1cc(CN2C[C@@H](O)[C@@H](O)[C@@H](O)[C@H]2CC(C)=O)ccc1O` [Compound 6g, (1R, 2S, 3R, 4R)-1-Acetylmethyl-2,3,4-trihydroxyl-N-3-ethyoxyl-4-hydroxylbenzylpiperidine], on α-glucosidase from yeast, the IC50 is over 20 µM and the “inhibition potency compared with compound 5λ, in words” value was “severely diminishes the inhibition”.

`COc1ccc(CN2C[C@@H](O)[C@@H](O)[C@@H](O)[C@H]2CC(C)=O)cc1O` [Compound 6h, (1R, 2S, 3R, 4R)-1-Acetylmethyl-2,3,4-trihydroxyl-N-3-hydroxyl-4-methoxylbenzylpiperidine] registered a half-maximal inhibitory concentration (IC50) against α-glucosidase from yeast of over 20 µM.

Turning to `CC(=O)C[C@@H]1[C@H](O)[C@H](O)[C@H](O)CN1Cc1cc(Br)c(O)c(Br)c1` [Compound 6i, (1R, 2S, 3R, 4R)-1-Acetylmethyl-2,3,4-trihydroxyl-N-3,5-dibromo-4-hydroxylbenzylpiperidine], the “inhibition potency compared with compound 5λ, in words” value at α-glucosidase from yeast is reported as “slightly improve the inhibition potency”. In addition, the IC50 at α-glucosidase from yeast (setting [1]) is 5.5 µM.
